Laboratory results published in ChEMBL document CHEMBL5653631, “A Potent and Selective ULK1 Inhibitor Suppresses Autophagy and Sensitizes Cancer Cells to Nutrient Stress” (iScience, 2018).
Values belong to the compound of their own block, whether it stands above or below them. Calls of active or inactive are those of the source. The rule behind the calls is not given here.

Tests used:
[1] = target: T1, Serine/threonine-protein kinase Chk1 (Homo sapiens) (UniProt O14757); experiment: Inhibition of human recombinant CHK1 at 500 nM in presence of ATP by radiometric assay relative to control
T1 sequence (whole entry): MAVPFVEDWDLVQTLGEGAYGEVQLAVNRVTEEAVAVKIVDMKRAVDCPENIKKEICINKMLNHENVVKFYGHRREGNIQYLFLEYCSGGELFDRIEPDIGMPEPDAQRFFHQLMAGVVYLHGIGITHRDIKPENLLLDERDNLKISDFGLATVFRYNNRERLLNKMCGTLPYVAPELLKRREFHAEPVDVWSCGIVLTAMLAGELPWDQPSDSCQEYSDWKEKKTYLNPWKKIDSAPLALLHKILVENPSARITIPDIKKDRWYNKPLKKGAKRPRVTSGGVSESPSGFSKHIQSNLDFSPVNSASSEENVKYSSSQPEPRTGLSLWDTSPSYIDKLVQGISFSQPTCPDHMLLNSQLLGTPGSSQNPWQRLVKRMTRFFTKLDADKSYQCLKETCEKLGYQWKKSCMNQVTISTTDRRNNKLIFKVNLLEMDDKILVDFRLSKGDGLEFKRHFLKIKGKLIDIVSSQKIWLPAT

[2] = target: Calcium/calmodulin-dependent protein kinase type 1D (Homo sapiens) (UniProt Q8IU85); experiment: Inhibition of human recombinant CaMK1d at 500 nM related to control ULK1
[3] = target: T2, Homeodomain-interacting protein kinase 4 (Homo sapiens) (UniProt Q8NE63); experiment: Inhibition of human recombinant HIPK4 at 500 nM in presence of ATP by radiometric assay relative to control
T2 sequence (whole entry): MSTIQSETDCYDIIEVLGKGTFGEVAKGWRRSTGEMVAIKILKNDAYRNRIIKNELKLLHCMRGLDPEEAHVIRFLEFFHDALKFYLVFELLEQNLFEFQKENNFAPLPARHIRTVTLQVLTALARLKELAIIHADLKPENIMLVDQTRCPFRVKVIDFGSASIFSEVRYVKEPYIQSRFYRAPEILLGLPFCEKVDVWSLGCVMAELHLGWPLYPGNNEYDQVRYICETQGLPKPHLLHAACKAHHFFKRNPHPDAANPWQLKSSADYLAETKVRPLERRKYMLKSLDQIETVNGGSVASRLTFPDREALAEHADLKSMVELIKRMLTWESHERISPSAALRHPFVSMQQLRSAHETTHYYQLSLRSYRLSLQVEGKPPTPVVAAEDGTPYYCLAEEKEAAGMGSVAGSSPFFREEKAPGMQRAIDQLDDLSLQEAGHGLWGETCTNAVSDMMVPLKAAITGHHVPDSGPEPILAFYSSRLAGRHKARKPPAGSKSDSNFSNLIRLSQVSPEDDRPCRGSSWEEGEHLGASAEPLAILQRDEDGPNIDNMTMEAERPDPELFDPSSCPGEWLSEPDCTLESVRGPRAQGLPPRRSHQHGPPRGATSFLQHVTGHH

[4] = target: Dual specificity mitogen-activated protein kinase kinase 1 (Homo sapiens) (UniProt Q02750); experiment: Inhibition of human recombinant MAP2K1 at 500 nM related to control ULK1
[5] = target: Ribosomal protein S6 kinase alpha-1 (Homo sapiens) (UniProt Q15418); experiment: Inhibition of human recombinant RSK1 at 500 nM related to control ULK1
[6] = target: Protein kinase C alpha type (Homo sapiens) (UniProt P17252); experiment: Inhibition of human recombinant PKCa at 500 nM related to control ULK1
[7] = target: Ephrin type-A receptor 2 (Homo sapiens) (UniProt P29317); experiment: Inhibition of human recombinant EphA2 at 500 nM in presence of ATP by radiometric assay relative to control
[8] = target: Cyclin-dependent kinase 18 (Homo sapiens) (UniProt Q07002); experiment: Inhibition of human recombinant PCTAIRE3 at 500 nM related to control ULK1
[9] = target: Serine/threonine-protein kinase Nek4 (Homo sapiens) (UniProt P51957); experiment: Inhibition of human recombinant NEK4 at 500 nM in presence of ATP by radiometric assay relative to control
[10] = target: Myosin light chain kinase, smooth muscle (Homo sapiens) (UniProt Q15746); experiment: Inhibition of human recombinant smMLCK at 40 nM in presence of ATP by radiometric assay relative to control
[11] = target: Glycogen synthase kinase-3 alpha (Homo sapiens) (UniProt P49840); experiment: Inhibition of human recombinant GSK3A at 40 nM related to control ULK1
U2OS = experiment: Inhibition of autophagy in human U2OS cells assessed as BafA1-induced LC3B-II accumulation upto 5 uM preincubated with compound for 3 hrs followed by BafA1 induction and measured after 1 hr by immunoblotting analysis; assay type: functional, cell-based; conditions: time 4.0 hrs
[12] = target: T3, Serine/threonine-protein kinase tousled-like 1 (Homo sapiens) (UniProt Q9UKI8); experiment: Inhibition of human recombinant TLK1 at 15 nM related to control ULK1
T3 sequence (whole entry): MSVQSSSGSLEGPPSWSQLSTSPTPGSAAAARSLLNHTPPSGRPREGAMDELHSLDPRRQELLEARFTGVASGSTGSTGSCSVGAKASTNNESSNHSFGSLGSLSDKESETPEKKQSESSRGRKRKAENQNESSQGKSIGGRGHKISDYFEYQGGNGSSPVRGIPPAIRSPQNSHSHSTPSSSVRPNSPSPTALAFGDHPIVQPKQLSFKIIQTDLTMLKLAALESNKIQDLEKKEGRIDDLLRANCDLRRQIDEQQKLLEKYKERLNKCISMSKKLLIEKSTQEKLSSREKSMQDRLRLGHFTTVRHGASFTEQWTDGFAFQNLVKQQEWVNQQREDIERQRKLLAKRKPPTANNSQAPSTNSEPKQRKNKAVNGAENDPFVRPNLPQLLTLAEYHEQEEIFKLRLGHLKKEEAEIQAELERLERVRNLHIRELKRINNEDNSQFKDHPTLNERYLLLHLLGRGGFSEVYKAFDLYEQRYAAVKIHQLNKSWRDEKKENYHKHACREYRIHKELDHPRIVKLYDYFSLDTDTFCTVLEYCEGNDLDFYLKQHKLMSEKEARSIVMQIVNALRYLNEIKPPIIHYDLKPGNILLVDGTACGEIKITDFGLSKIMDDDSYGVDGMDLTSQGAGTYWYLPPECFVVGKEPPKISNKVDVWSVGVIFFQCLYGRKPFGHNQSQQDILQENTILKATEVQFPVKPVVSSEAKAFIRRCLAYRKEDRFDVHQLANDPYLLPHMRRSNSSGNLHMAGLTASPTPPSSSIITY

[13] = target: Wee1-like protein kinase 2 (Homo sapiens) (UniProt P0C1S8); experiment: Inhibition of human recombinant Wee1B at 15 nM related to control ULK1
[14] = target: Serine/threonine-protein kinase Nek6 (Homo sapiens) (UniProt Q9HC98); experiment: Inhibition of human recombinant NEK6 at 15 nM related to control ULK1
Sequence of Serine/threonine-protein kinase Nek6 (Homo sapiens) (Q9HC98 whole entry): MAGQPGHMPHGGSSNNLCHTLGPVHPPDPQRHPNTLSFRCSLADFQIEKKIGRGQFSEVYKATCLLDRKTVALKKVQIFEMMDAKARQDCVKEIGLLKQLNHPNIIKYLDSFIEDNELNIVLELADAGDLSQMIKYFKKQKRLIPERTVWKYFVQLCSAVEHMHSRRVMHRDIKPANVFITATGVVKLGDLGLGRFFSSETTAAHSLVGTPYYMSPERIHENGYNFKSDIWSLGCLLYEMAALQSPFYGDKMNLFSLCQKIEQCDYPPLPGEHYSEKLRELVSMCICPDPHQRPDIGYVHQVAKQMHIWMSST

Sequence of Cyclin-dependent kinase 18 (Homo sapiens) (Q07002 whole entry): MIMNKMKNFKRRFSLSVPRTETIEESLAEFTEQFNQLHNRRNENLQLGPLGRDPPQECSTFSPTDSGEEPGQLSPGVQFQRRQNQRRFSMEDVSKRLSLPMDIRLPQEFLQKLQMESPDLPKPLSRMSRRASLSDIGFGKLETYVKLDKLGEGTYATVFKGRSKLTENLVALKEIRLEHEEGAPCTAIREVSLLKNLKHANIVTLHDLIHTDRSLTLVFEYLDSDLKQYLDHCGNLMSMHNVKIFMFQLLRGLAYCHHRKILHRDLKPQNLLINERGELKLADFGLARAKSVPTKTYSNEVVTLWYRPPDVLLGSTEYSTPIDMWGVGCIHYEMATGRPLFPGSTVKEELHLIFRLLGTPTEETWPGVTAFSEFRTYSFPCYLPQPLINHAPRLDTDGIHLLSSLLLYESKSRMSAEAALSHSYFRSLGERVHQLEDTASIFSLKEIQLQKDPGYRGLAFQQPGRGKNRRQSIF
Sequence of Glycogen synthase kinase-3 alpha (Homo sapiens) (P49840 2-483 limits assumed): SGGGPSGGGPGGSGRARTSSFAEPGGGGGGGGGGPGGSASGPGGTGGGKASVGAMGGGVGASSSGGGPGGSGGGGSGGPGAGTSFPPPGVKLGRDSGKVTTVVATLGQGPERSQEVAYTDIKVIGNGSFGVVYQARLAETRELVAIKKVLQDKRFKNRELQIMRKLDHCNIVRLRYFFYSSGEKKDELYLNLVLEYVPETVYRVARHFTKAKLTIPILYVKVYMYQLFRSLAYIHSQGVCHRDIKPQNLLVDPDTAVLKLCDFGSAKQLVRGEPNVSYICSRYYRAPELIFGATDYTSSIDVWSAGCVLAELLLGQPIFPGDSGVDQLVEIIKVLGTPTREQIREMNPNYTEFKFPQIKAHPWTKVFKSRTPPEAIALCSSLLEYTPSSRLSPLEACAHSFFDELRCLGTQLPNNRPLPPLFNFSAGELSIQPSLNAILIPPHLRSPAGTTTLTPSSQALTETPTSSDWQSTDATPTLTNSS
Sequence of Ribosomal protein S6 kinase alpha-1 (Homo sapiens) (Q15418 whole entry): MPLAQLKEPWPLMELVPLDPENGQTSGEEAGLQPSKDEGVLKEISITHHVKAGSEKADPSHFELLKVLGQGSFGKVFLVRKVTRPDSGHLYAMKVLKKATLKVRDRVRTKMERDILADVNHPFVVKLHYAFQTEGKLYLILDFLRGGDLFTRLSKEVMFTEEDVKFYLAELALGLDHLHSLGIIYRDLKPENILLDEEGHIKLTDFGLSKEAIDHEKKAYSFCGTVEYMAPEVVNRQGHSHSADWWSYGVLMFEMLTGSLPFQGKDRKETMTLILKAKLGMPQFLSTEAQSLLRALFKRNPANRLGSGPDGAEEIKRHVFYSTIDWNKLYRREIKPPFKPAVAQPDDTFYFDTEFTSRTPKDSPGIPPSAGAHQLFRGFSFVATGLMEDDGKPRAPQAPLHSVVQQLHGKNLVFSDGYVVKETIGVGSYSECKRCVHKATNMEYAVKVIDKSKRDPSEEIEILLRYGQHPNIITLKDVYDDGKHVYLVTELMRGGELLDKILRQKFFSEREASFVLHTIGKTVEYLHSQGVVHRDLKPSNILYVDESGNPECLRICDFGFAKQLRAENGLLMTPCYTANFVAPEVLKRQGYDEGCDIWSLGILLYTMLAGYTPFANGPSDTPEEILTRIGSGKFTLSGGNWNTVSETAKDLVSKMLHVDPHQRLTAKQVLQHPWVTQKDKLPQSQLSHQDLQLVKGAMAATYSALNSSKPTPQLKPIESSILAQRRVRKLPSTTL
Sequence of Dual specificity mitogen-activated protein kinase kinase 1 (Homo sapiens) (Q02750 whole entry): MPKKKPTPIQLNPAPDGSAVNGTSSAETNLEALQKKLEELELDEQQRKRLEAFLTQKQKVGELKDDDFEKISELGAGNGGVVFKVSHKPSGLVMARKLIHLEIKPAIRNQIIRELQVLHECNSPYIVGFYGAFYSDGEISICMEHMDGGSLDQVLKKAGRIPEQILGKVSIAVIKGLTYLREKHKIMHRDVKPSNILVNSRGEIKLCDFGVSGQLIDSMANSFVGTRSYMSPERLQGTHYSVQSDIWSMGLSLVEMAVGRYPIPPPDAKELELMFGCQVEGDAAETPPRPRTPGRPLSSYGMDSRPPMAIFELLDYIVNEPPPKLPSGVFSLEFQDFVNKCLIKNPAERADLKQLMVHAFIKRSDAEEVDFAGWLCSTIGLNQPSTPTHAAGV
Sequence of Serine/threonine-protein kinase Nek4 (Homo sapiens) (P51957 whole entry, looked up): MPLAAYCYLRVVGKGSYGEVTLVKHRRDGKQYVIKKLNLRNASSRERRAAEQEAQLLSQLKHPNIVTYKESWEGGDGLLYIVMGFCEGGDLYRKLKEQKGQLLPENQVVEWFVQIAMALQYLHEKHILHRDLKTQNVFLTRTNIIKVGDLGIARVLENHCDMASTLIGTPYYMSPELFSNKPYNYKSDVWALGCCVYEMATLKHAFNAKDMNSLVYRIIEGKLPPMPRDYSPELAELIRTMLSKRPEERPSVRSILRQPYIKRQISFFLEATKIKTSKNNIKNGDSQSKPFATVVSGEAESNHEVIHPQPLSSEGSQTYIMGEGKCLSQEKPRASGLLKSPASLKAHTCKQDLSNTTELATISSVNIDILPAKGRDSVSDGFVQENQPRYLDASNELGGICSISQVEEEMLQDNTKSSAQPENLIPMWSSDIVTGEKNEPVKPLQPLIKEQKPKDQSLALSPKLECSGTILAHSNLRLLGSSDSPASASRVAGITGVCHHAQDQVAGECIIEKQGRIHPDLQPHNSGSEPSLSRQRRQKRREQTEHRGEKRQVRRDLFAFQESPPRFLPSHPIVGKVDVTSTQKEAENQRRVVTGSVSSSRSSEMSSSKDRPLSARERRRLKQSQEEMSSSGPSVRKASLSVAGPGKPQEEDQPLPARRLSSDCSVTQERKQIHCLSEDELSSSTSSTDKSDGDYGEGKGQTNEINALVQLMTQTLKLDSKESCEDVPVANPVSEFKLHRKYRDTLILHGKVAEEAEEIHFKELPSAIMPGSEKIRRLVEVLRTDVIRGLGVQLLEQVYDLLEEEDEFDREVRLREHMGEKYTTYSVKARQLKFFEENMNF
Sequence of Wee1-like protein kinase 2 (Homo sapiens) (P0C1S8 whole entry, looked up): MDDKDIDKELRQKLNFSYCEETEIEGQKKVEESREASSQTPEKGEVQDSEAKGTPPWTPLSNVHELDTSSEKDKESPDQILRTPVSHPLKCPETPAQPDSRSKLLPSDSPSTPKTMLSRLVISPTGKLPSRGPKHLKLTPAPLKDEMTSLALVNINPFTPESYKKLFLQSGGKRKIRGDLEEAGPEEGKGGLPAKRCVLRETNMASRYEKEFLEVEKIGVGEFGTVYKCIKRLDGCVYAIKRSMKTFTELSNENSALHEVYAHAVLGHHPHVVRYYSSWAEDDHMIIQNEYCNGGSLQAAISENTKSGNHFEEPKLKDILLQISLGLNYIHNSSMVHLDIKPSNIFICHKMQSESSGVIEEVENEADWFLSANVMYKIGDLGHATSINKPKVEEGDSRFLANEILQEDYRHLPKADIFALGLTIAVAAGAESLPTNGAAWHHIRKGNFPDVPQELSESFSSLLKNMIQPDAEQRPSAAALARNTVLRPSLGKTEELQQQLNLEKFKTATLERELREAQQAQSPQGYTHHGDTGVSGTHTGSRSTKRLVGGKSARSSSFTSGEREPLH
Sequence of Calcium/calmodulin-dependent protein kinase type 1D (Homo sapiens) (Q8IU85 whole entry, looked up): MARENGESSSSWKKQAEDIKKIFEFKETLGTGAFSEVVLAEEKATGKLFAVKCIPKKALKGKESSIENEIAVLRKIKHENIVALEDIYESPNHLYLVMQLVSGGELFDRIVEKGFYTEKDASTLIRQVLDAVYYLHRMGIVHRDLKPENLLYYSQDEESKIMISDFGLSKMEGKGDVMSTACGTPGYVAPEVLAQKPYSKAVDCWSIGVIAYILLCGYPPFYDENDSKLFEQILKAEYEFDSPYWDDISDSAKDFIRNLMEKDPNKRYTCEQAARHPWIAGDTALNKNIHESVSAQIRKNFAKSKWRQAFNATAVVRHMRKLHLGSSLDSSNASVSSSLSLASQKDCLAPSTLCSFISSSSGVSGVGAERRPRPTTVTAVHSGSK

inhibition [1]: 4%
fold change (FC) [2]: 0.07
inhibition [3]: 9%
fold change (FC) [4]: 0
fold change (FC) [5]: 0.26
fold change (FC) [6]: 0
inhibition [7]: 2%
fold change (FC) [8]: 0.27
inhibition [9]: 23%
SMILES: CNC(=O)c1ccccc1Oc1nc(Nc2cc(OC)c(OC)c(OC)c2)ncc1Br

inhibition [10]: 5%
fold change (FC) [11]: 0
SMILES: O=C(N[C@@H](C1CC1)C(F)(F)F)c1cc(-c2cnn3cc(-c4ccc(F)cc4)cnc23)cs1
inhibition (U2OS): Active

fold change (FC) [12]: 0
fold change (FC) [13]: 0.13
fold change (FC) [14]: 0.01
SMILES: CC(C)[C@H](NC(=O)c1cc(-c2cnn3cc(-c4ccc(OCCN5CCCCC5)cc4)cnc23)cs1)C(F)(F)F
